From article PMC7136958, “Targeting the pregnane X receptor using microbial metabolite mimicry” (EMBO Molecular Medicine, 2020)
“And” between values parts separate entries of the source, which are not always exact repeats. Equal values may be shown once. Read-outs that look alike come from different tables or passages of the source.

How the values were obtained:
Cyp3a11 = test: PXR target gene expression in pxr -/- mice after FKK6 gavage; format: in vivo, mouse; settings: pxr-/- (PXR knockout), mouse, oral, 500 μM, 5 doses (60 h), mean
Description: (§1) (Scheer et al, 2010) were administered 10% DMSO (n = 3) or FKK6 (n = 3) in 3 or 5 doses, with each dose interval of 12 h. Each gavage dose volume was 100 μl. 2–4 h after the dosing period, mice were sacrificed, and tissues were harvested for further analysis. The mouse studies were performed three independent times over an 18‐month period. All purchased mice were acclimatized in the Einstein vivarium for ~ 2 weeks before experiments started. […]. The room temperature was maintained at 25 ± 2°C with 55 ± 5% humidity. All studies were approved by the Institute of Animal Studies at the Albert Einstein College of Medicine, INC (IACUC # 20160706, 20160701 and preceding protocols), and specific animal protocols were also approved by additional protocols (IACUC# 20170406, 20170504) and Animal Care and Use Review Office (ACURO) of the US Army Medical Research and Materiel Command (PR160167, W81XWH‐17‐1‐0479). […]
(§2) Mouse small, large intestine and liver samples were collected and total RNAs were […]
(§3) isolated. […] Each tissue PCR was […]
(§4) repeated in quadruplicate. The expression was normalized to internal control, GAPDH. ( b,d) The histograms show mean (95 %CI) values, c, mean (SD) and two way ANOVA followed with Tukey's post hoc test. The entire experiment was repeated n = 3 for reproducibility. The data shown is one representative experiment .

mdr1 = test: as above; format: in vivo, mouse; settings: pxr-/- (PXR knockout), mouse, oral, 500 μM, 5 doses (60 h), mean
Description: as §1, §2, §3, §4

pxr -/- mice = test: as above; format: in vivo, mouse; settings: for Cyp3a11 fold expression / mdr1 fold expression: Fig 4e
Description: as §1, §2, §3, §4

PRMT1 = molecular target: T1, PRMT1 (Homo sapiens, UniProt Q99873); test: Histone methyltransferase assay (Reaction Biology); format: biochemical; settings: substrate Histone H4, replicates
T1 construct: purchased Reaction Biology Corp
T1 sequence (Q99873 whole entry, species assumed): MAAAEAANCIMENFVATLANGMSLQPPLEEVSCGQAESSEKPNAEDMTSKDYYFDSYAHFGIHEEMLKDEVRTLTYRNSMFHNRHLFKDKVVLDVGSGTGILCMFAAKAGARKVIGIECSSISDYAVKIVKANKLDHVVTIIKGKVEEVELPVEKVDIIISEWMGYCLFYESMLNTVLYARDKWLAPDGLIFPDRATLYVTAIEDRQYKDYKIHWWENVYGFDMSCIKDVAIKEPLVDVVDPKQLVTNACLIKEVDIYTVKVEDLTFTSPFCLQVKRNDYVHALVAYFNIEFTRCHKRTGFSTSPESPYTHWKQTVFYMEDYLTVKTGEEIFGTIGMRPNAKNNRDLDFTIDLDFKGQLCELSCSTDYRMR
Description: Software Tool and reprinted with permission from KINOME scan®, a division of DiscoveRx […]
The following […] assays (HDAC, SIRT1, PRMT1, PARP1, p300, pCAF) were performed by Reaction Biology Corp. FKK6 was screened at a single concentration of 10 μM in duplicate in two separate experiments. The appropriate controls for the individual assays are published. The overall […]
enzyme activity in the assay is reported as a % activity in DMSO control wells. Control IC50 […]
Briefly, for the Sirtuin (SIRT1) assay, human SIRT1 (GenBank
Accession No. NM012238) full -length N-terminal His-tag protein (MW 83.2 kDa) was purified after expression in E. coli. The reaction buffer was freshly prepared and constituted 50 mM Tris-HC l ( p H 8), 137 mM NaCl, 2.7 mM KCl, 1 mM MgCl2, and just before use, 1 mg/mL BSA and 1% DMSO was added. The substrate was a fluorogenic acetylated peptide of p53 residues 379-382 (RHKK (Ac)- AM C) . In th e multi-well format, the 2X enzyme was mixed with the reaction buffer followed by compound (in 100% DMSO) titration via Acoustic technology (Echo550; LabCyte Inc, Sunnyvale, CA) in the nanoliter range. The mixture was spun down and 2X substrate (including NAD+) was added to initiate the reaction at 30° C at 2h under seal. […]

C#CCC(O)(c1ccncc1)c1cc2ccccc2n1S(=O)(=O)c1ccccc1 (stereo not drawn) [FKK6] showed a fold induction at 60 h, 500 µM (Cyp3a11; large intestine, × DMSO, read-out: Cyp3a11 fold induction, Large Intestine) of 0.36, a fold induction at 60 h, 500 µM (Cyp3a11; liver, read-out: Cyp3a11 fold induction, Liver) of 1.54 and a fold induction at 60 h, 500 µM (Cyp3a11; small intestine, × DMSO, read-out: Cyp3a11 fold induction, Small Intestine) of 0.25. It also gave a fold induction at 60 h, 500 µM (mdr1; large intestine, read-out: mdr1 fold induction, Large Intestine) of 0.71, a fold induction at 60 h, 500 µM (mdr1; liver, read-out: mdr1 fold induction, Liver) of 1.22 and a fold induction at 60 h, 500 µM (mdr1; small intestine, read-out: mdr1 fold induction, Small Intestine) of 1.16. The “PXR target gene (mdr1) expression across organs” value (pxr -/- mice; 36 h and 60 h) was “no effect”, the Cyp3a11 fold expression (pxr -/- mice; Large Intestine) was 0.69 fold and 0.64 fold and 0.66 fold and the mdr1 fold expression (pxr -/- mice; Large Intestine) was 0.87 fold and 0.67 fold and 0.93 fold. The Cyp3a11 fold expression (pxr -/- mice; Liver) was 0.84 fold and 1.18 fold and 1.42 fold, the Cyp3a11 fold expression (pxr -/- mice; Small Intestine) was 0.98 fold and 0.96 fold and 1.09 fold and the mdr1 fold expression (pxr -/- mice; Small Intestine) was 0.52 fold and 0.37 fold and 0.63 fold. For the same compound, the “target gene expression levels (cyp3a11, mdr1) decrease vs DMSO” value (pxr -/- mice; mouse, in vivo) was no more than 1.5 fold, the “% Enzyme Activity to DMSO controls” value (PRMT1; 10 μM) was 88.77% and 78.47% and 81.3% and the remaining activity at 10 µM (PRMT1; read-out: % Enzyme Activity to DMSO controls) was 86.4%.
